Assay results as given in US8871774B2, “Inhibitors of influenza viruses replication” (priority 2010, dated 2014).
Like-named read-outs stand apart in the source and are kept apart here.

Legend:
[1] = test system: influenza A virus (A/PR/8/34); test: cytopathic effect (CPE) assay, MDCK cell protection by ATP detection; format: cell-based; settings: Influenza A virus, mean IC50, MDCK cells, A/PR/8/34, 72 hours, 50% cell protection
[2] = test system: Influenza virus, strain A/PR/8/34; test: microbe, parasite or virus in culture; format: cell-based
[3] = Table 1, read-out: Flu, MDCK IC50
[4] = unidentified influenza virus, PR/8, read-out: bDNA EC50 (uM)
[5] = Table 2, read-out: Flu MDCK IC50
[6] = read-out: bDNA EC50, Table 2, mean EC50, viral RNA level 50% of control wells

Compound	IC50 [1, 3] [µM]	EC50 [2, 4] [µM]	IC50 [1, 5] [µM]	EC50 [2, 6] [µM]
C[C@]1(C(=O)O)CCCC[C@@H]1Nc1nc(-c2n[nH]c3ncc(Cl)cc23)ncc1F (racemic) [Compound I-13, (+/−)-2-((2-(5-chloro-1H-pyrazolo[3,4-b]pyridin-3-yl)-5-fluoropyrimidin-4-yl)amino)-1-methylcyclohexanecarboxylic acid]	< 3.3	< 3.3	–	–
O=C(N[C@@H]1CCC[C@H](Nc2nc(-c3n[nH]c4ncc(F)cc34)ncc2F)C1)N1CCOCC1 [Compound I-21, N-((1R,3S)-3-((5-fluoro-2-(5-fluoro-1H-pyrazolo[3,4-b]pyridin-3-yl)pyrimidin-4-yl)amino)cyclohexyl)morpholine-4-carboxamide]	< 3.3	< 3.3	–	–
O=C(N[C@@H]1CCC[C@H](Nc2nc(-c3n[nH]c4ncc(Cl)cc34)ncc2F)C1)N1CCC[C@H]1CO [Compound I-4, (S)—N-((1R,3S)-3-((2-(5-chloro-1H-pyrazolo[3,4-b]pyridin-3-yl)-5-fluoropyrimidin-4-yl)amino)cyclohexyl)-2-(hydroxymethyl)pyrrolidine-1-carboxamide]	< 3.3	< 3.3	–	–
O=C(O)[C@H]1C2CCC(CC2)[C@@H]1Nc1nc(-c2n[nH]c3ncc(Cl)cc23)ncc1F [Compound I-9, (2S,3 S)-3-((2-(5-chloro-1H-pyrazolo[3,4-b]pyridin-3-yl)-5-fluoropyrimidin-4-yl)-amino)bicyclo[2.2.2]octane-2-carboxylic acid]	< 3.3	< 3.3	–	–
O=C(O)[C@@H]1CCCC2(CCCC2)[C@H]1Nc1nc(-c2n[nH]c3ncc(F)cc23)ncc1F [Compound I-46]	–	> 3.3	< 3.3	–
COC(=O)[C@H]1C2CCC(CC2)[C@@H]1Nc1nc(-c2n[nH]c3ncc(Cl)cc23)ncc1F (racemic) [Compound I-2, (+/−)-trans-(2,3)-methyl 3-((2-(5-chloro-1H-pyrazolo[3,4-b]pyridin-3-yl)-5-fluoropyrimidin-4-yl)amino)bicyclo[2.2.2]octane-2-carboxylate]	< 3.3	< 3.3	–	–
C[C@@H]1CCCN1C(=O)N[C@@H]1CCC[C@H](Nc2nc(-c3n[nH]c4ncccc34)ncc2F)C1 [Compound I-18, (R)—N-((1R,3S)-3-((5-fluoro-2-(1H-pyrazolo[3,4-b]pyridin-3-yl)pyrimidin-4-yl)amino)cyclohexyl)-2-methylpyrrolidine-1-carboxamide]	< 3.3	< 3.3	–	–
O=C(O)[C@@H]1CCCC2(CCCC2)[C@@H]1Nc1nc(-c2n[nH]c3ncc(F)cc23)ncc1F [Compound I-40, (6R,7R)-6-((5-fluoro-2-(5-fluoro-1H-pyrazolo[3,4-b]pyridin-3-yl)-pyrimidin-4-yl)amino)spiro[4.5]decane-7-carboxylic acid]	–	–	< 3.3	< 3.3
Cn1cnc(C(=O)N[C@@H]2CCC[C@H](Nc3nc(-c4n[nH]c5ncccc45)ncc3F)C2)c1 [Compound I-24, N-((1R,3S)-3-((5-fluoro-2-(1H-pyrazolo[3,4-b]pyridin-3-yl)pyrimidin-4-yl)amino)cyclohexyl)-1-methyl-1H-imidazole-4-carboxamide]	< 3.3	< 3.3	–	–
O=C(O)[C@H]1CCCC2(CCCC2)[C@@H]1Nc1nc(-c2n[nH]c3ncc(F)cc23)ncc1F [Compound I-45]	–	< 3.3	< 3.3	–
O=C(O)[C@H]1C2CCC(CC2)[C@@H]1Nc1nc(-c2n[nH]c3ncc(F)cc23)ncc1F [Compound I-44]	–	–	< 3.3	< 3.3
O=C(N[C@@H]1CCC[C@H](Nc2nc(-c3n[nH]c4ncccc34)ncc2F)C1)N1CC[C@H](F)C1 [Compound I-17, (S)-3-fluoro-N-((1R,3S)-3-((5-fluoro-2-(1H-pyrazolo[3,4-b]pyridin-3-yl)pyrimidin-4-yl)amino)cyclohexyl)pyrrolidine-1-carboxamide]	< 3.3	< 3.3	–	–
O=C(O)[C@@H]1CCCC2(CCCC2)[C@@H]1Nc1nc(-c2n[nH]c3ncc(F)cc23)ncc1F [Compound I-38]	< 3.3	< 3.3	–	–
COC(=O)[C@H]1C2CCC(CC2)C1Nc1ccnc(-c2n[nH]c3ncc(F)cc23)n1 (mixture of isomers) [Compound I-42, (+/−)-trans-methyl-3-((2-(5-fluoro-1H-pyrazolo[3,4-b]pyridin-3-yl)pyrimidin-4-yl)amino)bicyclo[2.2.2]octane-2-carboxylate]	–	< 3.3	< 3.3	–
O=C(O)[C@H]1C2CCC(CC2)[C@@H]1Nc1nc(-c2n[nH]c3ncc(F)cc23)ncc1Cl (racemic) [Compound I-33, (+/−)-trans-(2,3)-3-((5-chloro-2-(5-fluoro-1H-pyrazolo[3,4-b]pyridin-3-yl)pyrimidin-4-yl)amino)bicyclo[2.2.2]octane-2-carboxylic acid]	< 3.3	< 3.3	–	–
COC1CCN(C(=O)N[C@@H]2CCC[C@H](Nc3nc(-c4n[nH]c5ncc(Cl)cc45)ncc3F)C2)C1 (stereo partly drawn) [Compound I-5, N-((1R,3S)-3-((2-(5-chloro-1H-pyrazolo[3,4-b]pyridin-3-yl)-5-fluoropyrimidin-4-yl)amino)cyclohexyl)-3-methoxypyrrolidine-1-carboxamide]	< 3.3	< 3.3	–	–
